Laboratory results: patent US9856259B2, “Heterocyclic compounds and uses thereof” (Plexxikon Inc., priority 2014, dated 2018)

Each compound was assayed against T1, BRD4-BD12 (Homo sapiens, UniProt O60885) (assay: Alphascreen binding assay, BRD4(1 2) H4). Conditions: BRD4 dual bromodomains with acetylated Histone 4 peptide, read-out: Biochemical activity (IC50 μM) BRD4(1 2) H4.
T1 construct: dual bromodomains (BRD4-BD12 (1-477), BRD4-BD12 (1-472)); six-His tag (N); made in house; host or cells: E. coli BL21-CodonPlus (DE3)
Procedure: Binding of compounds of formula (I) with bromodomain 2, 3 4 was assessed using Alphascreen binding assay. The inhibition of the interaction between bromodomain and its acetylated target protein (Filippakopoulos P et al. 2012) was measured quantitatively using recombinant BRD proteins, an acetylated Histone 4 peptide and AlphaScreen™ technology. In absence of inhibition the BRD protein bound to AlphaScreen™ nickel chelate acceptor beads can interact with the acetylated Histone 4 peptide which is immobilized by the AlphaScreen™ Streptavidin coated beads. This interaction brings donor and acceptor beads in proximity. The close proximity allows the singlet oxygen produced by laser excitation of the donor beads to reach the acceptor beads and generate a luminescence signal. BRD inhibitors result in a decrease in the proximity signal through an inhibition of the BRD acetylated peptide interaction.
Recombinant human bromodomains containing the N-terminal bromodomain (BRD2-BD1 (71-194), BRD3-BD1 (24-144) and BRD4-BD1 (44-164)) or dual bromodomains (BRD4-BD12 (1-477), BRD4-BD12 (1-472)) were prepared and purified as described in protein expression and purification session. The peptide is human Histone H41-21K5AcK8AcK12AcK16Ac-Biotin (Anaspec Calif., USA).
Protocol for BRD2, BRD3 and BRD4 assay: All components are prepared in buffer composed of 50 mM HEPES pH 7.5, 100 mM NaCl, 0.01% BSA, 0.01% Triton X-100, 2 mM DTT. 7 μL of Bromodomain protein and 7 μL of peptide are added to wells containing 1 μL of various concentrations of test compounds of formula (I) or DMSO vehicle in an Alphaplate (PerkinElmer Ga., USA) and incubated for 1 hour at room temperature. 4 μL donor and acceptor bead mixture is then added with final concentrations of 7.5 μg/ml. 30 minutes after bead addition, Alpha signal is read on the Envision spectrometer (λEx 680 nm, λEm 520-620 nm). Final concentrations of bromodomain proteins and peptide are as shown below.
All data was normalized to the mean of 16 high and 16 low control wells on each plate. A four parameter curve fit of the following formula was then applied: Y=a+(b−a)/(1+(x/c)^d) Where ‘a’ is the minimum, ‘b’ is the maximum, ‘c’ is the pIC50 and ‘d’ is the Hill slope. Protein Expression and Purification
Recombinant human bromodomains containing the N-terminal bromodomain (BRD2-BD1 (71-194), BRD3-BD1 (24-144) and BRD4-BD1 (44-164)) or dual bromodomains (BRD4-BD12 (1-477), BRD4-BD12 (1-472)) were expressed in E. coli cells (in a modified pET vector) with an N-terminal six-His tag and purified using a combination of both IMAC (Ni-affinity) and size exclusion chromatography steps.
Recombinant BRD proteins were expressed using the E. coli strain BL21-CodonPlus (DE3) (Agilent Technologies CA, USA). Cells were grown in Terrific Broth (TB) media to an OD600 of 1.2 at 37° C. at which temperature was reduced to 25° C., protein was induced with 1.0 mM IPTG for 12-18 hours and harvested by centrifugation at 8000×g for 20 minutes. Cells were re-suspended in 0.1M KPO4 pH 8.0, 250 mM NaCl, 10% Glycerol, 0.75% NP-40, 25 mM Imidazole, 5 mM BME with 0.2 mg/ml Lysosyme, 2.0 mM PMSF, 25 μg/ml DNAse I, incubated on ice for 30 minutes and lyzed with a cell disruptor (MicroFluidics MA, USA). The lysate was clarified by centrifugation at 20,000×g for 2 hours. The protein was captured with Ni-NTA resin (Life Technologies, USA). Contaminating proteins were washed off with 25 mM Tris-HCl pH 8.3, 250 mM NaCl, 12% Glycerol and 50 mM Imidazole. Following 3× wash steps, protein was eluted step wise using a 50 mM HEPES pH 7.5, 500 mM NaCl and 400 mM Imidazole. The protein was further purified using Gel Filtration column 26/600 Superdex 200 (GE Biosciences N.J., USA) in 50 mM HEPES pH 7.5, 250 mM NaCl. The protein was aliquoted and flash-frozen in liquid Nitrogen.
Work on `Cc1nnn(C)c1-c1cnc2c(-c3cnn(C)c3)nn(CC3CCC(F)(F)CC3)c2c1` [Compound P-2090, 1-[(4,4-difluorocyclohexyl)methyl]-6-(3,5-dimethyltriazol-4-yl)-3-(1-methylpyrazol-4-yl)pyrazolo[4,3-b]pyridine] yielded an IC50 of at most 1 µM.

The compounds below were run on MV-4-11 (assay: Oncology cell growth assay, MV-4-11 3 d growth). Conditions: Homo sapiens, MV4-11; MV-4-11 cells, 72 hours, CellTiter Glo; read-out: Cell activity (IC50 μM) MV-4-11 3 d-Growtb.
Format: cell-based
Procedure: (§1) In this study, we test compounds in different cancer cell lines. MV-4-11 and MOLM-13 are AML cell lines harboring a MLL-AF4 and MLL-AF9 translocation, respectively. MM.1S is a multiple myeloma cell line. SK—N-AS, IMR-32 and SK-N-BE(2) are neuroblastoma cell lines. IMR-32 and SK-N-BE(2) cell lines harbor MYCN amplifications.
(§2) MV-4-11, MM.1S, IMR-32, SK-N-AS and SK-N-BE(2) were obtained from ATCC (IL, USA) and MOLM-13 were purchased from DSMZ (Braunschweig, German). Cells are cultured as recommended by their sources. For growth inhibition studies 3000 cells are seeded in wells of a 96-well plate in 75 μL of culture media. After several hours, growth media containing compounds of formula (I) are added to the wells. Compound at a maximal concentration of 5 mM was serially diluted 1:3 for a total of 8 point titration with DMSO as a control. A 1 μL aliquot of each dilution point is added to 249 μL growth media and 75 μL is added to each well containing cells, providing 10 μM compound at the maximum concentration point. The final concentration of DMSO in all wells is 0.2%. Cells are incubated for 72 hours, and 25 μL of CellTiter Glo Reagent (Promega Ga., USA) is added to each well. Plates are shaken for approximately 10 minutes and chemiluminescent signal is read on Tecan microplate reader. The measured luminescence correlates directly with cell number.
(§3) All data is normalized to the mean of eight DMSO high control wells on each plate. A four parameter curve fit of the following formula was then applied: Y=a+(b−a)/(1+(x/c)^d) Where ‘a’ is the minimum, ‘b’ is the maximum, ‘c’ is the pIC50 and ‘d’ is the Hill slope. […] Myc Reporter Assay
Work on `Cc1nnn(C)c1-c1cnc2c(-c3cnn(C)c3)nn(CC3CCC(F)(F)CC3)c2c1` [Compound P-2090, 1-[(4,4-difluorocyclohexyl)methyl]-6-(3,5-dimethyltriazol-4-yl)-3-(1-methylpyrazol-4-yl)pyrazolo[4,3-b]pyridine] yielded an IC50 of at most 1 µM.

The compounds below were run on cancer cell lines / MV-4-11 Myc reporter cell line (assay: Bromodomain cell assays of Example 8 (at least one of them)). Conditions: Homo sapiens, MV4-11; at least one of the bromodomain cell assays described in Example 8.
Format: cell-based
Procedure: as §1, §2, §3
In MV-4-11 cells, BRD2, BRD3 and BRD4 bind to the promoter region of MYC and regulate its transcription (Dawson M A et al. 2011). The literature bromodomain inhibitor iBET 151 could disrupt BRD4 recruitment to the MYC promoter and subsequently downregulate c-myc transcription (Dawson M A et al. 2011). Myc protein is a transcription factor that heterodimerizes with an obligatory partner Max and regulates the transcription of genes important for cell proliferation, differentiation, and apoptosis. This Myc reporter assay is used to monitor the inhibitory effect of compound of formula (I) on Myc dependent gene expression. Effective compounds could have potential therapeutic effects in Myc-driven tumors.
The MV-4-11 Myc reporter cell line is established by infecting MV-4-11 with VSV-g pseudotyped lentivirus expressing the firefly luciferase gene under the control of a minimal (m) CMV promoter and tandem repeats of the E-box transcriptional response element (TRE) (Qiagen IL, USA) and selecting cells in 2.5 μg/ml Puromycin.
The MV-4-11 Myc reporter cell line is maintained in Iscove's Modified Dulbecco's Medium containing 10% FBS, 1% PenStep and 2.5 μg/ml Puromycin. Cells are incubated at 37° C. in a humidified atmosphere with 5% CO2. 25,000 cells are seeded in 96-well plate in 50 μL of culture media. After several hours, growth media containing 2× compounds are added to the wells. Compound at a maximal concentration of 5 mM is serially diluted 1:3 for a total of 8 point titration. A 1 μl aliquot of each dilution point is added to 249 μl growth media and 50 μl is added to each well containing cells, providing 10 μM compound at the maximum concentration point. DMSO treated cells serve as a high control and 10 μM JQ1 treated cells serve as a low control. Cells are incubated for a further 24 hours and 25 μL of CellTiter-Fluo Reagent (Promega Ga., USA) is added to each well. Plates are shaken for approximately 2 minutes and incubated at 37° C. for 0.5 hour. Fluorescence signal is read in a Tecan Plate reader (λex=400 nm, λcm=505 nm). 25 μL of One-Glo Reagent (Promega Ga., USA) is then added to the plates. Chemiluminescent signal is read on Tecan plate reader. Values from the wells with no cells are subtracted from all samples for background correction. […]
In the case of `Cc1nnn(C)c1-c1cnc2c(-c3cnn(C)c3)nn(CC3CCC(F)(F)CC3)c2c1` [Compound P-2090, 1-[(4,4-difluorocyclohexyl)methyl]-6-(3,5-dimethyltriazol-4-yl)-3-(1-methylpyrazol-4-yl)pyrazolo[4,3-b]pyridine], the IC50 is reported as under 10 µM.
For `Cc1noc(C)c1-c1cnc2c(c1)c(Cc1ccccc1)nn2-c1ccc(C(=O)O)cc1F` [Compound P-2102, 4-[3-benzyl-5-(3,5-dimethylisoxazol-4-yl)pyrazolo[3,4-b]pyridin-1-yl]-3-fluoro-benzoic acid], the IC50 was under 10 µM.
Work on `Cc1noc(C)c1-c1cnc2[nH]nc(Cc3ccccc3)c2c1` [Compound P-2100, 4-(3-benzyl-1H-pyrazolo[3,4-b]pyridin-5-yl)-3,5-dimethyl-isoxazole] yielded an IC50 of under 10 µM.
In the case of `CCOC(=O)c1ccc(-n2nc(Cc3ccccc3)c3cc(-c4c(C)noc4C)cnc32)c(F)c1` [Compound P-2101, ethyl 4-[3-benzyl-5-(3,5-dimethylisoxazol-4-yl)pyrazolo[3,4-b]pyridin-1-yl]-3-fluoro-benzoate], the IC50 is reported as under 10 µM.
`Cc1noc(C)c1-c1cnc2c(-c3ccc(C(=O)O)cc3)nn([C@@H](C)c3ccccn3)c2c1` [Compound P-2093, 4-[6-(3,5-dimethylisoxazol-4-yl)-1-[(1S)-1-(2-pyridyl)ethyl]pyrazolo[4,3-b]pyridin-3-yl]benzoic acid] was tested, and the IC50 was under 10 µM.
`Cc1noc(C)c1-c1cnc2c(I)nn([C@@H](C)c3ccccn3)c2c1` [Compound P-2091, 4-[3-iodo-1-[(1S)-1-(2-pyridyl)ethyl]pyrazolo[4,3-b]pyridin-6-yl]-3,5-dimethyl-isoxazole] was tested, and the IC50 was under 10 µM.
In the case of `Cc1noc(C)c1-c1cnc2c(-c3ccc(CC(=O)O)cc3)nn([C@@H](C)c3ccccn3)c2c1` [Compound P-2094, 2-[4-[6-(3,5-dimethylisoxazol-4-yl)-1-[(1S)-1-(2-pyridyl)ethyl]pyrazolo[4,3-b]pyridin-3-yl]phenyl]acetic acid], the IC50 is reported as under 10 µM.
`Cc1noc(C)c1-c1cnc2c(I)nn(C(c3ccccc3)c3ccccn3)c2c1` (centres unmarked) [Compound P-2095, 4-[3-iodo-1-[phenyl(2-pyridyl)methyl]pyrazolo[4,3-b]pyridin-6-yl]-3,5-dimethyl-isoxazole] showed an IC50 of under 10 µM.
Work on `Cc1noc(C)c1-c1ccc2[nH]nc(Cc3ccccc3)c2c1` [Compound P-2035, 4-(3-benzyl-1H-indazol-5-yl)-3,5-dimethyl-isoxazole] yielded an IC50 of under 10 µM.
Work on `Cc1noc(C)c1-c1cnc2c(-c3cnn(C)c3)nn([C@@H](C)c3ccccn3)c2c1` [Compound P-2099, 3,5-dimethyl-4-[3-(1-methylpyrazol-4-yl)-1-[(1S)-1-(2-pyridyl)ethyl]pyrazolo[4,3-b]pyridin-6-yl]isoxazole] yielded an IC50 of under 10 µM.
`Cc1noc(C)c1-c1ccc2c(c1)c(Cc1ccccc1)nn2-c1ccc(C(=O)O)cc1F` [Compound P-2037, 4-[3-benzyl-5-(3,5-dimethylisoxazol-4-yl)indazol-1-yl]-3-fluoro-benzoic acid] was tested, and the IC50 was under 10 µM.
Compound `Cc1noc(C)c1-c1cnc2c(-c3cnn(CC(F)(F)F)c3)nn([C@@H](C)c3ccccn3)c2c1` [Compound P-2098, 3,5-dimethyl-4-[1-[(1S)-1-(2-pyridyl)ethyl]-3-[1-(2,2,2-trifluoroethyl)pyrazol-4-yl]pyrazolo[4,3-b]pyridin-6-yl]isoxazole] has an IC50 of under 10 µM.
For `Cc1noc(C)c1-c1cnc2c(-c3ccc(CC(=O)O)cc3)nn(C(c3ccccc3)c3ccccn3)c2c1` (centres unmarked) [Compound P-2097, 2-[4-[6-(3,5-dimethylisoxazol-4-yl)-1-[phenyl(2-pyridyl)methyl]pyrazolo[4,3-b]pyridin-3-yl]phenyl]acetic acid], the IC50 was under 10 µM.
For `CCOC(=O)c1ccc(-n2nc(Cc3ccccc3)c3cc(-c4c(C)noc4C)ccc32)c(F)c1` [Compound P-2036, ethyl 4-[3-benzyl-5-(3,5-dimethylisoxazol-4-yl)indazol-1-yl]-3-fluoro-benzoate], the IC50 was under 10 µM.
In the case of `Cc1noc(C)c1-c1cnc2c(-c3ccc(C(=O)O)cc3)nn(C(c3ccccc3)c3ccccn3)c2c1` (centres unmarked) [Compound P-2096, 4-[6-(3,5-dimethylisoxazol-4-yl)-1-[phenyl(2-pyridyl)methyl]pyrazolo[4,3-b]pyridin-3-yl]benzoic acid], the IC50 is reported as under 10 µM.
